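Five concentrations, 48 hours, 96-well plates. TGI marks complete inhibition of growth.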
Tests used:
Experiment in all cases: NCI tumour cell line growth inhibition, 48 h
[1] = tested on: DMS 114 small cell lung
[2] = tested on: UO-31 renal
[3] = tested on: OVCAR-5 ovarian
[4] = tested on: MALME-3M melanoma
[5] = tested on: NCI-H226 lung
[6] = tested on: ACHN renal
[7] = tested on: M14 melanoma
[8] = tested on: TK-10 renal
[9] = tested on: HOP-62 NSCLC
[10] = tested on: KM12 colon
[11] = tested on: CCRF-CEM leukemia
[12] = tested on: LOX IMVI melanoma
[13] = tested on: UACC-62 melanoma
[14] = tested on: SF-295 CNS
[15] = tested on: HCT-15 colon
[16] = tested on: NCI-H460 lung
[17] = tested on: HOP-92 NSCLC
[18] = tested on: SN12C renal
[19] = tested on: IGROV1 ovarian
[20] = tested on: RPMI-8226 leukemia
[21] = tested on: HT29 colon
[22] = tested on: SF-539 CNS
[23] = tested on: CAKI-1 renal
[24] = tested on: OVCAR-8 ovarian
[25] = tested on: LXFL 529 NSCLC
[26] = tested on: MOLT-4 leukemia
[27] = tested on: SR leukemia
[28] = tested on: SK-MEL-5 melanoma
[29] = tested on: A549 NSCLC
[30] = tested on: DLD-1 colon
[31] = tested on: SK-OV-3 ovarian
[32] = tested on: COLO 205 colon
[33] = tested on: M19-MEL melanoma
[34] = tested on: SW-620 colon
[35] = tested on: HCT-116 colon
[36] = tested on: NCI-H522 lung
[37] = tested on: OVCAR-4 ovarian
[38] = tested on: EKVX NSCLC
[39] = tested on: XF 498 CNS
[40] = tested on: RXF 393 renal
[41] = tested on: SK-MEL-28 melanoma
[42] = tested on: K-562 leukemia
[43] = tested on: HL-60(TB) leukemia
[44] = tested on: SF-268 CNS
[45] = tested on: HOP-18 NSCLC
[46] = tested on: OVCAR-3 ovarian
[47] = tested on: SNB-75 CNS
[48] = tested on: SNB-19 CNS
[49] = tested on: NCI-H23 lung
[50] = tested on: HCC-2998 colon
[51] = tested on: 786-0 renal
[52] = tested on: UACC-257 melanoma
[53] = tested on: KM20L2 colon

Question: With O=C(Nc1c(C(=O)NC2CCCCC2)[nH]c(=O)[nH]c1=O)c1ccc(Cl)cc1 as the molecule, how does the TGI [1] read?
Answer: The TGI was greater than 100 µM.

Question: And the TGI [2]?
Answer: The TGI was greater than 100 µM.

Question: And the TGI [3]?
Answer: The TGI was greater than 100 µM.

Question: And the TGI [4]?
Answer: Its TGI is greater than 100 µM.

Question: What about the TGI [5] of the same molecule?
Answer: The TGI was greater than 100 µM.

Question: And the TGI [6]?
Answer: The TGI was greater than 100 µM.

Question: And the TGI [7]?
Answer: The TGI was greater than 100 µM.

Question: What about the TGI [8] of the same molecule?
Answer: The TGI was greater than 100 µM.

Question: What about the TGI [9] of the same molecule?
Answer: Its TGI is greater than 100 µM.

Question: And the TGI [10]?
Answer: The TGI was greater than 100 µM.

Question: What about the TGI [11] of the same molecule?
Answer: Its TGI is greater than 100 µM.

Question: What about the TGI [12] of the same molecule?
Answer: Its TGI is greater than 100 µM.

Question: And the TGI [13]?
Answer: The TGI was greater than 100 µM.

Question: And the TGI [14]?
Answer: Its TGI is greater than 100 µM.

Question: What about the TGI [15] of the same molecule?
Answer: Its TGI is greater than 100 µM.

Question: What about the TGI [16] of the same molecule?
Answer: The TGI was greater than 100 µM.

Question: And the TGI [17]?
Answer: The TGI was greater than 100 µM.

Question: What about the TGI [18] of the same molecule?
Answer: Its TGI is greater than 100 µM.

Question: What about the TGI [19] of the same molecule?
Answer: The TGI was greater than 100 µM.

Question: And the TGI [20]?
Answer: The TGI was greater than 100 µM.

Question: What about the TGI [21] of the same molecule?
Answer: Its TGI is greater than 100 µM.

Question: What about the TGI [22] of the same molecule?
Answer: The TGI was greater than 100 µM.

Question: What about the TGI [23] of the same molecule?
Answer: Its TGI is greater than 100 µM.

Question: What about the TGI [24] of the same molecule?
Answer: The TGI was greater than 100 µM.

Question: And the TGI [25]?
Answer: The TGI was greater than 100 µM.

Question: What about the TGI [26] of the same molecule?
Answer: The TGI was greater than 100 µM.

Question: What about the TGI [27] of the same molecule?
Answer: Its TGI is greater than 100 µM.

Question: What about the TGI [28] of the same molecule?
Answer: The TGI was greater than 100 µM.

Question: And the TGI [29]?
Answer: Its TGI is greater than 100 µM.

Question: What about the TGI [30] of the same molecule?
Answer: Its TGI is greater than 100 µM.

Question: What about the TGI [31] of the same molecule?
Answer: The TGI was greater than 100 µM.

Question: And the TGI [32]?
Answer: Its TGI is greater than 100 µM.

Question: And the TGI [33]?
Answer: Its TGI is greater than 100 µM.

Question: And the TGI [34]?
Answer: Its TGI is greater than 100 µM.

Question: What about the TGI [35] of the same molecule?
Answer: Its TGI is greater than 100 µM.

Question: What about the TGI [36] of the same molecule?
Answer: The TGI was greater than 100 µM.

Question: And the TGI [37]?
Answer: The TGI was greater than 100 µM.

Question: What about the TGI [38] of the same molecule?
Answer: Its TGI is greater than 100 µM.

Question: What about the TGI [39] of the same molecule?
Answer: The TGI was greater than 100 µM.

Question: What about the TGI [40] of the same molecule?
Answer: Its TGI is greater than 100 µM.

Question: And the TGI [41]?
Answer: Its TGI is greater than 100 µM.

Question: What about the TGI [42] of the same molecule?
Answer: The TGI was greater than 100 µM.

Question: And the TGI [43]?
Answer: Its TGI is greater than 100 µM.

Question: What about the TGI [44] of the same molecule?
Answer: Its TGI is greater than 100 µM.

Question: What about the TGI [45] of the same molecule?
Answer: Its TGI is greater than 100 µM.

Question: And the TGI [46]?
Answer: The TGI was greater than 100 µM.

Question: What about the TGI [47] of the same molecule?
Answer: Its TGI is 85.1 µM.

Question: With COC(=O)N/N=C(\C(=O)Nc1cccc([N+](=O)[O-])c1)c1nc2ccc([N+](=O)[O-])cc2[nH]c1=O as the molecule, how does the TGI [48] read?
Answer: Its TGI is greater than 100 µM.

Question: What about the TGI [1] of the same molecule?
Answer: Its TGI is 40.1 µM.

Question: And the TGI [2]?
Answer: Its TGI is greater than 100 µM.

Question: What about the TGI [3] of the same molecule?
Answer: Its TGI is greater than 100 µM.

Question: And the TGI [4]?
Answer: The TGI was greater than 100 µM.

Question: And the TGI [5]?
Answer: The TGI was greater than 100 µM.

Question: What about the TGI [6] of the same molecule?
Answer: Its TGI is greater than 100 µM.

Question: What about the TGI [7] of the same molecule?
Answer: The TGI was greater than 100 µM.

Question: What about the TGI [8] of the same molecule?
Answer: The TGI was greater than 100 µM.

Question: And the TGI [9]?
Answer: Its TGI is 66.5 µM.

Question: What about the TGI [10] of the same molecule?
Answer: The TGI was greater than 100 µM.

Question: What about the TGI [11] of the same molecule?
Answer: The TGI was greater than 100 µM.

Question: What about the TGI [12] of the same molecule?
Answer: The TGI was greater than 100 µM.

Question: And the TGI [13]?
Answer: The TGI was 58.5 µM.

Question: And the TGI [14]?
Answer: The TGI was greater than 100 µM.

Question: What about the TGI [16] of the same molecule?
Answer: Its TGI is greater than 100 µM.

Question: What about the TGI [17] of the same molecule?
Answer: The TGI was greater than 100 µM.

Question: What about the TGI [18] of the same molecule?
Answer: Its TGI is greater than 100 µM.

Question: And the TGI [19]?
Answer: The TGI was greater than 100 µM.

Question: What about the TGI [20] of the same molecule?
Answer: The TGI was greater than 100 µM.

Question: What about the TGI [21] of the same molecule?
Answer: The TGI was greater than 100 µM.

Question: What about the TGI [22] of the same molecule?
Answer: The TGI was greater than 100 µM.

Question: What about the TGI [49] of the same molecule?
Answer: Its TGI is greater than 100 µM.

Question: And the TGI [24]?
Answer: The TGI was greater than 100 µM.

Question: What about the TGI [25] of the same molecule?
Answer: Its TGI is greater than 100 µM.

Question: And the TGI [26]?
Answer: The TGI was greater than 100 µM.

Question: And the TGI [27]?
Answer: The TGI was greater than 100 µM.

Question: And the TGI [50]?
Answer: The TGI was greater than 100 µM.

Question: What about the TGI [28] of the same molecule?
Answer: Its TGI is greater than 100 µM.

Question: What about the TGI [29] of the same molecule?
Answer: Its TGI is greater than 100 µM.

Question: What about the TGI [30] of the same molecule?
Answer: The TGI was greater than 100 µM.

Question: And the TGI [31]?
Answer: The TGI was greater than 100 µM.

Question: What about the TGI [32] of the same molecule?
Answer: The TGI was greater than 100 µM.

Question: And the TGI [33]?
Answer: Its TGI is greater than 100 µM.

Question: What about the TGI [34] of the same molecule?
Answer: Its TGI is greater than 100 µM.

Question: And the TGI [35]?
Answer: The TGI was greater than 100 µM.

Question: And the TGI [36]?
Answer: The TGI was 96.6 µM.

Question: And the TGI [37]?
Answer: The TGI was greater than 100 µM.

Question: What about the TGI [51] of the same molecule?
Answer: The TGI was greater than 100 µM.

Question: And the TGI [38]?
Answer: Its TGI is greater than 100 µM.

Question: What about the TGI [39] of the same molecule?
Answer: Its TGI is greater than 100 µM.

Question: What about the TGI [40] of the same molecule?
Answer: The TGI was greater than 100 µM.

Question: What about the TGI [41] of the same molecule?
Answer: The TGI was greater than 100 µM.

Question: What about the TGI [52] of the same molecule?
Answer: Its TGI is greater than 100 µM.

Question: What about the TGI [42] of the same molecule?
Answer: Its TGI is greater than 100 µM.

Question: What about the TGI [43] of the same molecule?
Answer: Its TGI is greater than 100 µM.

Question: And the TGI [53]?
Answer: The TGI was 67.3 µM.

Question: And the TGI [44]?
Answer: Its TGI is 13.3 µM.

Question: And the TGI [45]?
Answer: Its TGI is greater than 100 µM.

Question: And the TGI [46]?
Answer: The TGI was greater than 100 µM.

Question: What about the TGI [47] of the same molecule?
Answer: Its TGI is greater than 100 µM.
